From publication PMC8306876, “A New N-Substituted 1H-Isoindole-1,3(2H)-Dione Derivative—Synthesis, Structure and Affinity for Cyclooxygenase Based on In Vitro Studies and Molecular Docking” (International Journal of Molecular Sciences, 2021)
Several values for one entry are separate records, joined by “and”; a condition that tells them apart may be missing. Equal entries are not always repeated. Marks after values point to notes of the source that are not given here.

Tests used:
[1] = tested on: NHDF cells; assay: Cell viability, MTT assay; assay type: cell-based; conditions: Homo sapiens, NHDF cell cultures, 24 h incubation, read-out: Cell Viability IC50 (µM) (SD)
Protocol: The NHDF cells obtained from ATCC (Manasas, VA, USA) were incubated with DMEM without phenol red supplemented with 10% fetal bovine serum (FBS), 2 mM L-glutamine, 1.25 µg/mL amphotericin B and 100 µg/mL gentamicin at 37 °C in a humidified 5% CO2/95% air atmosphere incubator. The cell culture was examined under the microscope twice a week, and cells were passaged if confluence was greater than 70% or the medium was replaced with fresh medium.
The […] were prepared by dissolving compounds in DMSO and then stored at −20 °C for up to 6 months. Before the biological experimental, the working solution was dissolved in the medium in the concentration range of 10, 50, and 100 µM.
To evaluated cell viability, an MTT assay was performed. After incubation of cells with the tested compounds for 24 h, the supernatant was removed, and 1 mg/mL MTT solution was applied for 2 h. Next, the formazan was dissolved with propanol for 30 min, and absorbance was measured at 570 nm using a microplate reader. The results are presented as IC50.

[2] = tested on: NHDF cells; assay: ROS level, DCF-DA assay after LPS preincubation; assay type: cell-based; conditions: 100 µM compound after LPS preincubation
Protocol: (§1) The ROS and RNS were evaluated using DCF–DA assay and Griess reagents, respectively. First, the cells were incubated with 50 µM LPS for 24 h to induce cell stress. Then, after the cells were washed, the 100 µM tested compounds were added for 1 h. Finally, the 50 µL supernatant was transferred to a new plate and added 50 µL of mixture A (1% sulfanilamide in 5% phosphoric acid) and B (0.1% N-(1-Naphthyl)ethylenediamine dihydrochloride) Griess reagents in a volume ratio 1:1 for 20 min in the dark. After that time, the absorbance was measured at 540 nm using a microplate reader. Simultaneously, the rest of the supernatant was removed from the above cell cultures, and 25 µM DCF–DA solution in MEM (without serum and phenol red) was added and left at 37 °C for 1 h and finally, determined fluorometrically with excitation at 485 nm and emission at 535 nm using a microplate reader.
(§2) The NO level was presented as concentration calculated using a standard curve (prepared in parallel with the conducted research). The ROS level was shown as ratio E/E0, where E0 is fluorescence with the positive control (cells incubated with 50 µM LPS) and E is a fluorescence with tested compound at 100 µM. Finally, the DNA damage was calculated as the ratio of cell nucleus diameter to halo diameter (a measure of DNA damage).
(§3) All statistical analysis performed were compared to the control—healthy cells (MTT assay), and positive control (incubated with 50 µM LPS) for DCF–DA, Griess, and DNA damaged. The data have a normal distribution and equality of variance, so ANOVA and post-hoc Scheffe methods were performed. The significance level was set at p < 0.05.

[3] = target: T1, COX-1 (Ovis aries, UniProt P05979); assay: Cyclooxygenase inhibition assay (Cayman kit No. 701050, COX peroxidase activity), COX-1; assay type: biochemical; conditions: incubation for 2 min; mean (SD); n = 3
T1 construct: purchased Cayman 701050
T1 sequence (P05979 25-600): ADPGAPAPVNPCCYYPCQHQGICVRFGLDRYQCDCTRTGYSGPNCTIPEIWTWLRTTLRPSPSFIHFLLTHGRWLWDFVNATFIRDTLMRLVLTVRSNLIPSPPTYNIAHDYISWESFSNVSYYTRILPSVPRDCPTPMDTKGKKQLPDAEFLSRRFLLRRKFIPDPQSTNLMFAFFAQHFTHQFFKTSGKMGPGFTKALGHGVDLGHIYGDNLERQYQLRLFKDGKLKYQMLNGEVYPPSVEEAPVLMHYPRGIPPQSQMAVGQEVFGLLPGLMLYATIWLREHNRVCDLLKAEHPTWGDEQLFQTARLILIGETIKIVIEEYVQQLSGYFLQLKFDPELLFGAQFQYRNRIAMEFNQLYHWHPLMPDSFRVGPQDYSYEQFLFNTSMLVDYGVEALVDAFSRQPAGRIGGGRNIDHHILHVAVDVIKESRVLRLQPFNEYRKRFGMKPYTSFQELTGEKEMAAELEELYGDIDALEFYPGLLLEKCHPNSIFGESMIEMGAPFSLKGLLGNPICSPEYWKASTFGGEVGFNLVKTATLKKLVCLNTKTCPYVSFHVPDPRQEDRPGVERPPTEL
Protocol: Cayman kit No. 701050 was used to evaluate the COX peroxidase activity of all compounds at a concentration of 100 µM. Absorbance was measured with a microplate reader at 590 nm. Concentrations at which 50% inhibition of enzyme activity occurred were calculated separately for COX-1 and COX-2 (IC50). Ratios of IC50 values (COX-2/COX-1) were also calculated

[4] = target: T2, COX-2 (Homo sapiens, UniProt P35354); assay: Cyclooxygenase inhibition assay (Cayman kit No. 701050, COX peroxidase activity), COX-2; assay type: biochemical; conditions: for IC50: incubation for 2 min, mean (SD), n = 3; for Ratio: COX-2/COX-1: ratio of IC50 values (COX-2/COX-1)
T2 construct: purchased Cayman 701050
T2 sequence (P35354 18-604): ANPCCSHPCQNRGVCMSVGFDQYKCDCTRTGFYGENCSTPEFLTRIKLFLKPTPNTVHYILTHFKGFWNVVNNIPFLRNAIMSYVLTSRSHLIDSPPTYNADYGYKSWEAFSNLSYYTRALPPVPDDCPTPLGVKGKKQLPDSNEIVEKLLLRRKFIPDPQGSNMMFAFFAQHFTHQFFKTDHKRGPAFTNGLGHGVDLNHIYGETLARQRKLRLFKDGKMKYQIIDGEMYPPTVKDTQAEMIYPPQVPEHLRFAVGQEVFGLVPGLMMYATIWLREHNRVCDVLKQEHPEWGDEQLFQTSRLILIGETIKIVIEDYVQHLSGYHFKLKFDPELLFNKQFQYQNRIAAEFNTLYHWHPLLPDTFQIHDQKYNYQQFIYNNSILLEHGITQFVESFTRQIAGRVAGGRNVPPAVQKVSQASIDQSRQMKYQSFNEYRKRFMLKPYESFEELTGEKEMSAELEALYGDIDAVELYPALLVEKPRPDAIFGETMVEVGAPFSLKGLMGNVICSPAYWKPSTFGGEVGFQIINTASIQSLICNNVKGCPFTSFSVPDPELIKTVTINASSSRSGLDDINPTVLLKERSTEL
Protocol: Absorbance was measured with a microplate reader at 590 nm. […] Ratios of IC50 values (COX-2/COX-1) were also calculated

[5] = tested on: NHDF cells; assay: DNA damage (chromatin relaxation, nucleus/halo diameter) after LPS preincubation; assay type: cell-based; conditions: ratio of cell nucleus diameter to halo diameter; 1 h with compound after 24 h with 50 µM LPS; (SD) n = 6
Protocol: However, the cells were detached at the surface after 1h of incubation with the tested compound for evaluating DNA damage. The cells were then subjected to an analogous procedure as described in Grajzer et al..
as §2, §3

[6] = tested on: NHDF cells; assay: RNS (NO) level, Griess reagents after LPS preincubation; assay type: cell-based; conditions: 100 µM compound for 1 h after 24 h with 50 µM LPS; (SD) n = 6
Protocol: as §1, §2, §3

Compound | IC50 [1] | scavenging of ROS compared to control [2] | IC50 [3] | IC50 [4] | Ratio: COX-2/COX-1 [4] | melting point | DNA Damage [5] | NO Level (pg/mL) [6]
COc1ccc(N2CCN(C(=O)CN3C(=O)c4ccccc4C3=O)CC2)cc1 [Compound I, 2-{2-oxo-2-[4-(4-methoxy)-phenyl-1-piperazinyl]ethyl}-1H-isoindole-1,3(2H)-dione] | 93.3 µM | approximately 29.0% | 94.4 µM | 46.2 µM | 0.49 | 204 to 207 °C | 19.2 (0.08) * | –
O=C1c2ccccc2C(=O)N1CN1CCN(c2ccccc2)CC1 [A, N-[(4-phenyl-1-piperazinyl)methyl]-1H-isoindole-1,3(2H)-dione] | – | – | 238 µM | 107 µM | 0.45 | 160 to 161 °C | 15.2 (0.04) * | 6.4 (0.14) pg/mL
O=C(CN1C(=O)c2ccccc2C1=O)N1CCN(c2cccc(C(F)(F)F)c2)CC1 [F, 2-{2-oxo-2-[4-(3-trifluoromethyl)-phenyl-1-piperazinyl]ethyl}-1H-isoindole-1,3(2H)-dione] | – | – | 171 µM | 47.6 µM | 0.28 | 206 to 208 °C | 20.1 (0.03) * | 9.1 (0.07) pg/mL
O=C(CN1C(=O)c2ccccc2C1=O)N1CCN(c2ccccc2)CC1 [E, 2-[2-oxo-2-(4-phenyl-1-piperazinyl)ethyl]-1H-isoindole-1,3(2H)-dione] | – | – | 76.7 µM | 53.4 µM | 0.70 | 180 °C | 18.4 (0.07) * | 5.3 (0.07) * pg/mL
O=C1c2ccccc2C(=O)N1CN1CCN(C(c2ccccc2)c2ccccc2)CC1 [Compound D, N-[(4-(diphenyl-methyl)-1-piperazinyl)methyl]-1H-isoindole-1,3(2H)-dione] | 90.3 µM | – | 66.2 µM | 72.8 µM | 1.10 | 206 to 207 °C | 17.3 (0.04) * | 7.4 (0.12) pg/mL
COc1cccc(N2CCN(C(=O)CN3C(=O)c4ccccc4C3=O)CC2)c1 [Compound H, 2-{2-oxo-2-[4-(3-methoxy)-phenyl-1-piperazinyl]ethyl}-1H-isoindole-1,3(2H)-dione] | 94.1 µM | approximately 29.0% | 176 µM | 43.8 µM | 0.25 | 155 to 156 °C | 17.1 (0.04) * | –
O=C1c2ccccc2C(=O)N1CN1CCN(c2cccc(C(F)(F)F)c2)CC1 [Compound C] | – | – | 104 µM | 70.3 µM | 0.67 | 147 to 148 °C | 23.2 (0.07) * | 8.2 (0.03) * pg/mL
COc1ccccc1N1CCN(CN2C(=O)c3ccccc3C2=O)CC1 [B, N-[(4-(2-methoxyphenyl)-1-piperazinyl)methyl]-1H-isoindole-1,3(2H)-dione] | – | – | 71 µM | 68.5 µM | 1.10 and 0.96 | 134 to 135 °C | 19.6 (0.09) * | –
COc1ccccc1N1CCN(C(=O)CN2C(=O)c3ccccc3C2=O)CC1 [G, 2-{2-oxo-2-[4-(2-methoxy)-phenyl-1-piperazinyl]ethyl}-1H-isoindole-1,3(2H)-dione] | 96.8 µM | approximately 29.0% | 101 µM | 65.8 µM | – | 152 to 154 °C | 18.7 (0.07) * | –
